For one series, the system named is Serratia marcescens. In kind it is cell-based. Conditions: no PIC-1, 20 mM glutathione.
Series [1] relates to Vesicular Stomatitis Virus (VSV). In kind it is cell-based. Conditions: Table 6A: 20 mM glutathione+2 eq base only, no PIC-1.
In a further series the test system is red blood cells. Conditions: sample 6: 0.2 mM GSH+2 eq base, no PIC-1. From the text: Methods for determining ATP, 2,3-DPG, glucose, hemoglobin, hemolysis, and potassium are available in the art. See for example, Davey et al., Transfusion, 32:525-528 (1992), the disclosure of which is incorporated herein. Methods for determining red blood cell function are also described in Greenwalt et al., Vox Sang, 58:94-99 (1990); Hogman et al., Vox Sang, 65:271-278 (1993); and Beutler et al., Blood, Vol. 59 (1982) the disclosures of which are incorporated herein by reference. For example, intracellular ATP and intracellular 2,3-DPG are measured using a Sigma ATP kit or 2,3-DPG kit (Sigma, St. Louis, Mo.). The ATP kit is used following Sigma procedure No. 366-UV, the disclosure of which is hereby incorporated by reference. […] The extracellular pH is measured by centrifuging the cells at 4° C. for 15 minutes at 12,000×g and removing the supernatant, for which the pH is measured using a standard pH meter at room temperature (e.g. Beckman, Epoxy Calomel electrode). For the intracellular pH, the remaining pellet is capped in the centrifuge tube and stored at about −80° C. for at least 2 hours. This is then lysed by the addition of deionized water. […] Measurements can be made shortly after treatment and as a function of post treatment storage, for example storage for up to 42 days.
Full units of red cell concentrates (Interstate Blood Bank, Inc., Memphis, Tenn.) were leukoreduced. A volume of 200 mL of this RCC (80% hematocrit) was mixed with 94 mL of Erythrosol or 100 mL of Adsol (Baxter Healthcare Corp., Deerfield, Ill.) as control (unit 1). A volume of 20 mL 8% dextrose was used to dissolve PIC-1 (mg) and acid glutathione (mg) and added to one unit to provide 0.2 mM PIC-1 and 2 mM glutathione (unit 2). […] For the glutathione, 1.2 mL of 10 N NaOH was added (2 equivalents). The PIC-1 was mixed with the unit, followed 1 minute later (unit 3) or 5 minutes later (unit 4) by glutathione. For unit 5, neutralized glutathione was mixed first, followed 10 minutes later by the PIC-1. […] All units were mixed by grasping the ends of the blood bag and mixing in a FIG. 8 motion 30 times. These were then incubated at room temperature for 20 hours total. A compound adsorption device (CAD), comprising a polymeric resin contained within a mesh pouch, was used for all but the control sample. This device is intended to remove residual PIC-1, PIC-1 breakdown products, and glutathione from the samples. Samples were incubated for 8 hours, then transferred to a second blood bag containing the CAD and incubated for an additional 12 hours. Following the room temperature incubation, samples were transferred to a refrigerator (4° C.) and stored up to 43 days. Aliquots were removed from each unit 12 hours and 20 hours post mixing, and every week thereafter. Aliquots were analyzed for total hemoglobin, pH, intracellular ATP, plasma hemoglobin, potassium, extracellular glucose and extracellular lactate.

Like-named read-outs stand apart in the source and are kept apart here.

For `N[C@@H](CCC(=O)N[C@@H](CS)C(=O)NCC(=O)O)C(=O)O` [glutathione, γ-L-glutamyl-L-cysteinyl-glycine], the entries for the “Log S. marcescens reduction” value in the series with Serratia marcescens (0 eq base) and in the series on Serratia marcescens (2 eq base) were 0.02 Log and 0.31 Log, respectively. The “Log S. marcescens titer” value in the series on Serratia marcescens (0 eq base) is on record as 7.0 Log; in the series with Serratia marcescens (2 eq base) it was 7.4 Log. Moreover, in series [1], the “Log VSV reduction” value is reported as −0.04 Log. In series [1], the “Log VSV titer” value is reported as 6.25 Log. Further, the “Percent Hemolysis” value is listed as 0.15% in the series on red blood cells (16B day 0); 0.19% in the series on red blood cells (16B day 0.5); 0.51% in the series with red blood cells (16B day 0.8); 0.58% in the series on red blood cells (16B day 7); 0.61% in the series with red blood cells (16B day 14); 0.60% with red blood cells (16B day 22). Further, the “Percent Hemolysis” value in the series on red blood cells (16B day 28) is 0.71%; with red blood cells (16B day 35), 0.70%; with red blood cells (16B day 43), 0.75%.
